Test [1] has as its system Candida. Nature of the test: Antimycotic in vivo action (oral) in candidosis of mice. The settings on record: 10-50 mg/kg one hour before and seven hours after i.v. infection. Further details: species or system mice of the SPF-CF1 type. The method, then: Antimycotic in vivo action (oral) in candidosis of mice
Mice of the SPF-CF1 type were infected intravenously with 1-2×10^6 logarithmically growing Candida cells, suspended in physiological saline solution. The animals were treated orally one hour before and seven hours after the infection, with in each case 10-50 mg/kg of body weight of the products.
Untreated animals died 3 to 6 days after infection. The survival rate on the 6th day after infection was about 5% in the case of untreated animals.

The subject of test [2] is Microsporum canis. Nature of the test: Antimycotic in vitro activity (series dilution test), Microsporum canis. Particulars: Sabourand's milieu d'epreuve, 5×10^4 germs/ml, 20° C., 96 hours, read-out: MIC values in Y/ml of nutrient medium for Microsporum canis. The test is classed as cell-based. On the procedure:
(§1) Antimycotic in vitro activity
(§2) The in vitro tests were carried out in a series dilution test using germ inocula of on average 5×10^4 germs/ml of substrate. The nutrient medium used was (a) for dermatophytes and moulds: Sabourand's milieu d'epreuve, and (b) for yeasts: meat extract/glucose broth.
(§3) The incubation temperature was 20° C. and the incubation time was 24 to 96 hours for yeasts and 96 hours for dermatophytes and moulds.

The subject of test [3] is dermatophytes, moulds and yeasts. Briefly: Antimycotic in vitro activity (series dilution test), overall. The test is classed as cell-based. On the procedure: as §1, §2, §3
Test [4] deals with Trichophyton mentagr. Nature of the test: Antimycotic in vitro activity (series dilution test), Trichophyton mentagr. In kind it is cell-based, Trichophyton mentagrophytes. Particulars: Sabourand's milieu d'epreuve, 5×10^4 germs/ml, 20° C., 96 hours, read-out: MIC values in Y/ml of nutrient medium for Trichophyton mentagr. The method, then: as §1, §2, §3
For test [5], the system named is Torulopsis glabrata. Nature of the test: Antimycotic in vitro activity (series dilution test), Torulopsis glabrata. The test is classed as cell-based. The settings on record: Nakaseomyces glabratus; meat extract/glucose broth; 5×10^4 germs/ml; 20° C.; 24 to 96 hours; read-out: MIC values in Y/ml of nutrient medium for Torulopsis glabrata. On the procedure: as §1, §2, §3

Test [6] deals with Aspergillus fumigatus. Briefly: Antimycotic in vitro activity (series dilution test), Aspergillus fumigatus. Particulars: Sabourand's milieu d'epreuve, 5×10^4 germs/ml, 20° C., 96 hours, read-out: MIC values in Y/ml of nutrient medium for Aspergillus fumigatus. The test is classed as cell-based. The method, then:
as §1, §2, §3

Test [7] relates to Candida albicans. Briefly: Antimycotic in vitro activity (series dilution test), Candida albicans. The test is classed as cell-based. The settings on record: meat extract/glucose broth, 5×10^4 germs/ml, 20° C., 24 to 96 hours, read-out: MIC values in Y/ml of nutrient medium for Candida albicans. The method, then:
as §1, §2, §3

The structures appear in SMILES notation. Values after ≈ are worked out from the molar mass of the structure shown.

Consider `CC(C)(Cc1ccc(Cl)cc1)C(O)(Cn1ccnc1)Cn1cncn1` (centres unmarked) [Example 8], for which, in test [1], the “Action (survivors on the 6th day after infection)” value is “++++ (good action=80% survivors on the 6th day after infection)” and the “action in candidosis of mice (in words)” value is recorded as “good to very good action”.

Turning to `Cc1ccc(CC(C)(C)C(O)(Cn2cncn2)Cn2cncn2)cc1` [Example 3], the MIC is 8 µg/mL (≈ 23.5 µM) in test [2]; 1 µg/mL (≈ 2.94 µM) in test [4]; 64 µg/mL (≈ 188 µM) in test [5]; 4 µg/mL (≈ 11.7 µM) in test [6]; 16 µg/mL (≈ 47 µM) in test [7]. In addition, in test [3], the “antimycotic action in vitro (in words)” value was “good antimycotic action”. Further, the “Action (survivors on the 6th day after infection)” value in test [1] is “++++ (good action=80% survivors on the 6th day after infection)”. Also, the “action in candidosis of mice (in words)” value in test [1] is given as “good to very good action”.

In the case of `CC(C)(CSc1ccc(Cl)cc1)C(O)(Cn1cncn1)Cn1cncn1` [Example 5], the MIC in test [2] came to 32 µg/mL (≈ 81.4 µM); in test [4], 1 µg/mL (≈ 2.55 µM); in test [5], 64 µg/mL (≈ 163 µM); in test [6] it was 32 µg/mL (≈ 81.4 µM); in test [7], 32 µg/mL (≈ 81.4 µM). Further, in test [3], the “antimycotic action in vitro (in words)” value is recorded as “good antimycotic action”. For the same molecule, in test [1], the “Action (survivors on the 6th day after infection)” value was “++++ (good action=80% survivors on the 6th day after infection)”. The “action in candidosis of mice (in words)” value in test [1] was “good to very good action”.

On to `CC(C)(Cc1ccc(Cl)cc1)C(O)(Cn1cncn1)Cn1cncn1` [Example 2], for which the MIC is 4 µg/mL (≈ 11.1 µM) in test [2]; 1 µg/mL (≈ 2.77 µM) in test [4]; 16 µg/mL (≈ 44.3 µM) in test [5]; 4 µg/mL (≈ 11.1 µM) in test [6]; 4 µg/mL (≈ 11.1 µM) in test [7]. The “antimycotic action in vitro (in words)” value in test [3] was “good antimycotic action”. For the same molecule, in test [1], the “Action (survivors on the 6th day after infection)” value was “+++++ (very good action=90% survivors on the 6th day after infection)”. Further, in test [1], the “action in candidosis of mice (in words)” value is reported as “good to very good action”.

Take `CC(C)(Oc1ccc(Cl)cc1)C(O)(Cn1cncn1)Cn1cncn1` [Example 6]: in test [3], the “antimycotic action in vitro (in words)” value is “good antimycotic action”. The MIC in test [4] is 32 µg/mL (≈ 88.2 µM); in test [5], 16 µg/mL (≈ 44.1 µM); in test [6], 64 µg/mL (≈ 176 µM); in test [7] it was 4 µg/mL (≈ 11 µM). In test [1], the “Action (survivors on the 6th day after infection)” value is given as “++++ (good action=80% survivors on the 6th day after infection)”. Also, the “action in candidosis of mice (in words)” value in test [1] is “good to very good action”.

With `CC(C)(Cc1ccc(Cl)cc1Cl)C(O)(Cn1cncn1)Cn1cncn1` [Example 1, 4-(2,4-dichlorophenyl)-3,3-dimethyl-2-(1,2,4-triazol-1-yl-methyl)-1-(1,2,4-triazol-1-yl)-2-butanol], the MIC in test [2] is 32 µg/mL (≈ 81 µM); in test [4] it was 1 µg/mL (≈ 2.53 µM); in test [5], 64 µg/mL (≈ 162 µM); in test [6], 32 µg/mL (≈ 81 µM); in test [7], 32 µg/mL (≈ 81 µM). Moreover, the “antimycotic action in vitro (in words)” value in test [3] is “good antimycotic action”. In test [1], the “Action (survivors on the 6th day after infection)” value is “+++++ (very good action=90% survivors on the 6th day after infection)”. Moreover, the “action in candidosis of mice (in words)” value in test [1] is “good to very good action”.

These data come from patent US4894382A, “Substituted 1,3-diazolyl-2-propanols and their use as antimycotic agents” (Bayer Aktiengesellschaft, priority 1983, dated 1990).
